{"source": "paper PMC11397024", "about": "“Strategic Fluorination to Achieve a Potent, Selective, Metabolically Stable, and Orally Bioavailable Inhibitor of CSNK2” (Molecules, 2024)", "key": {"CSNK2A1": {"target": "T1, CSNK2A1 (Homo sapiens, UniProt P68400)", "T1 construct": "expressed in transfected cells; host or cells: HEK293", "test": "NanoBRET assay CSNK2A1", "format": "cell-based", "conditions": "HEK293 cells, singlicate, read-out: CSNK2A1 pIC50 (converted)", "procedure": "Assays were run using a modified version of the previously published protocols. […] A transfection complex of DNA (10 μg/mL) was generated consisting of 9 μg/mL carrier DNA (Promega, Madison, WI, USA) and 1 μg/mL CSNK2A-NLuc fusion DNA in Opti-MEM without serum (Gibco). FuGENE HD (Promega) was added at 30 μL/mL to form a lipid–DNA complex. The solution was then mixed and incubated at room temperature for 20 min. The transfection complex was mixed with a 20× volume of HEK293 cells in DMEM/FBS to arrive at a final concentration of 200,000 cells/mL, and 100 μL/well was added to a 96-well plate that was incubated overnight at 37 °C and 5% CO2. The following day, the medium was removed via aspiration and replaced with 85 μL of Opti-MEM without phenol red. A total of 5 μL per well of 20× NanoBRET Tracer K10 (Promega) at 10 μM for CSNK2A1 or 5 μM for CSNK2A2 in Tracer Dilution Buffer (Promega N291B) was added to all wells, except the “no tracer” control wells. Test compounds (10 mM in DMSO) were diluted 100× in Opti-MEM media to prepare stock solutions and evaluated at 11 concentrations. A total of 10 μL per well of the 10-fold test compound stock solutions (final assay concentration of 0.1% DMSO) were added. […] The plates were read within 30 min on a GloMax Discover luminometer (Promega) equipped with a 450 nm BP filter (donor) and 600 nm LP filter (acceptor) using 0.3 s of integration time. […]"}, "SARS-CoV-2": {"tested_on": "SARS-CoV-2", "test": "SARS-CoV-2 assay in A549-ACE2 cells", "format": "cell-based"}}}
{"smiles": "CCC(=O)Nc1cc(Nc2cc(NC3CC3)n3ncc(C#N)c3n2)c(F)cc1N1CCC[C@H](NC)C1", "note": "[Compound 2, (S)-N-(5-((3-cyano-7-(cyclopropylamino)pyrazolo[1,5-a]pyrimidin-5-yl)amino)-4-fluoro-2-(3-(methylamino)piperidin-1-yl)phenyl)propionamide]", "values": [{"measurement": "IC50", "setting": "CSNK2A1", "result": 7.94, "unit": "nM"}, {"measurement": "IC90", "setting": "SARS-CoV-2; Severe acute respiratory syndrome coronavirus 2", "result": 2200, "unit": "nM"}, {"measurement": "IC50", "setting": "SARS-CoV-2; Severe acute respiratory syndrome coronavirus 2, triplicate, read-out: SARS-CoV-2 pIC50 (converted)", "result": 316, "unit": "nM"}]}
